Experimental data from patent publication US20260216141A1, “NECROSIS INHIBITOR” (LINKGEVITY LIMITED, priority 2023, published 2026).
“Also recorded” adds a separate entry of the source. Like-named read-outs stand apart in the source and are kept apart here.

Legend:
Hepg2s spheroids = format: cell-based; conditions: for necrotic core formation / cell death necrosis relative to control: hypoxic and nutrient deprivation stress, DRAQ7, up to day 7
Protocol: Media changes were on alternative days. […] DMSO controls were added on each plate.
In some of the following Examples, human 3D cell culture was employed using liver Hepg2 cells. 3D cell culture is known to accurately replicate a cell's native environment. During embryonic development, cells aggregate and self-assemble into complex multi-cellular structures. The same aggregation process can likewise occur in in vitro culture systems if cell-cell cohesion is favoured over cell attachment to a substrate. The resulting 3D cell culture aggregates are known as spheroids. […] A standard method of spheroid formation in U-bottom low adhesion plates was used in the Examples herein.
This is because, as the spheroids grow, only the peripheral cells obtain oxygen and nutrients from the cell culture medium. The inner cells die from cell death necrosis, with the formation of large necrotic cores (observable though use of standard live dead stains). Thus, necrotic core formation represents a naturally occurring hypoxic and nutrient stress. This resembles multiple forms of shock in humans where blood flow carrying nutrients and oxygen is disrupted to certain cells, tissues and/or organs.

[1] = known in the art; cited from earlier work
[2] = test system: human intestinal fibroblast primary cell spheroids; experiment: Human intestinal fibroblast primary cell spheroids, hydrogen peroxide oxidative stress, Calcein AM/Ethidium homodimer-1 stain; format: cell-based; conditions: hydrogen peroxide 800 μM for 6 hrs; preventative; Dantrolene 100 μM, retinoic acid 10, 20 or 40 μM, Nifedipine 10 μM
Protocol: Media changes were on alternative days. […] Drug treatment was done overnight prior stress. […] Two repeats of all conditions were performed. Each repeat used 31 organoids per condition. […] DMSO controls were assessed in parallel on each plate.
Thus far, the Examples have focused on hypoxic and nutrient deprivation stressors. To test other stressors, this Example uses an oxidative stress/toxin stress model, where human intestinal fibroblast (HIF) primary cell spheroids were exposed to hydrogen peroxide. The standard viability Calcein AM/Ethidium homodimer-1 staining was used as a marker of cell death. Following 800 μM hydrogen peroxide exposure for 6 hrs, just over 25% of cells were dead in the control (i.e. relative to Triton X-100 that kills all cells).

Row | Compound | necrotic core formation / cell death necrosis relative to control (Hepg2s spheroids; Hepg2s spheroids) | other results
1 | COc1ccc([C@@H]2N[C@H](C(=O)O)Cc3c2[nH]c2ccccc32)cc1CN1CCN(c2ccccc2F)CC1 (relative stereo) [cis-Ned 19] | no significant difference from the control; also recorded: no significant effect on level of cell death necrosis | 
2 | COc1ccc([C@H]2N[C@H](C(=O)O)Cc3c2[nH]c2ccccc32)cc1CN1CCN(c2ccccc2F)CC1 (relative stereo) [trans-Ned 19] | no significant difference from the control; also recorded: no significant effect on level of cell death necrosis | 
3 | CC(=O)OCOC(=O)CN(CC(=O)OCOC(C)=O)c1ccccc1OCCOc1ccccc1N(CC(=O)OCOC(C)=O)CC(=O)OCOC(C)=O [BAPTA-AM, 2-[N-[2-(acetyloxymethoxy)-2-oxoethyl]-2-[2-[2-[bis [2-(acetyloxymethoxy)-2-oxoethyl]amino]phenoxy]ethoxy]anilino]acetic acid acetyloxymethyl ester] |  | toxicity at earlier time points (Hepg2s spheroids; time points earlier than day 7): some milder toxicity in some trials; necrosis suppression (Hepg2s spheroids; x8 dosage, 25 μM, day 7): significant necrosis suppression; cell culture dosages considered maximum dosages which result in minimum toxicity [1]: 1 to 3 µM
4 | O=C(O)CN(CCN(CC(=O)O)CC(=O)O)CCN(CC(=O)O)CC(=O)O [DTPA, diethylenetriaminepentaacetic acid] |  | toxicity at earlier time points (Hepg2s spheroids): some mild, but not statistically significant, toxicity; dosage needed to suppress necrosis (Hepg2s spheroids; Hepg2s spheroids, day 7): 4000 µM; cell culture dosages considered maximum dosages which result in minimum toxicity [1]: around 50 μM
5 | O=C1CN(/N=C/c2ccc(-c3ccc([N+](=O)[O-])cc3)o2)C(O)=N1 [Dantrolene] | no significant difference from the control; also recorded: no significant effect on necrosis inhibition; also recorded: no significant effect on cell necrosis relative to control | necrotic core formation / cell death necrosis relative to control (Hepg2s spheroids; Hepg2s spheroids, listed as dantrolene): no significant difference to control; necrosis following oxidative stress relative to control [2]: either no significant difference or a worse effect to control
6 | CCCCC/C=C\C/C=C\C/C=C\C/C=C\CCCC(=O)O [arachidonic acid] | No significant necrosis prevention and/or treatment | 
7 | CC1(C)[C@@H](OC(=O)CCC(=O)O)CC[C@]2(C)[C@H]3C(=O)C=C4[C@@H]5C[C@@](C)(C(=O)O)CC[C@]5(C)CC[C@@]4(C)[C@]3(C)CC[C@@H]12 [carbenoxolone] | No significant necrosis prevention and/or treatment | 
8 | O=C(O)c1ccccc1Nc1cccc(C(F)(F)F)c1 [flufenamic acid] | No significant necrosis prevention and/or treatment | 
9 | CC1(C)[C@@H](O)CC[C@]2(C)[C@H]3C(=O)C=C4[C@@H]5C[C@@](C)(C(=O)O)CC[C@]5(C)CC[C@@]4(C)[C@]3(C)CC[C@@H]12 [glycyrrhetinic acid] | No significant necrosis prevention and/or treatment | 
10 | FC(F)(F)C(Cl)Br (stereo not shown) [halothane] | No significant necrosis prevention and/or treatment | 
11 | CCCCCCCO [heptanol] | No significant necrosis prevention and/or treatment | 
12 | CCCCC/C=C\C/C=C\CCCCCCCC(=O)O [linoleic acid] | No significant necrosis prevention and/or treatment | level of cell death / toxicity in isolation relative to control (Hepg2s spheroids): greater toxicity relative to control
13 | Cc1ccc(Cl)c(Nc2ccccc2C(=O)O)c1Cl [meclofenamic acid] | No significant necrosis prevention and/or treatment | 
14 | OC(c1cc(C(F)(F)F)nc2c(C(F)(F)F)cccc12)C1CCCCN1 (stereo not shown) [mefloquine] | No significant necrosis prevention and/or treatment | 
15 | O=C(O)c1cccnc1Nc1cccc(C(F)(F)F)c1 [niflumic acid] | No significant necrosis prevention and/or treatment | 
16 | CCCCCCCCO [octanol] | No significant necrosis prevention and/or treatment | level of cell death / toxicity in isolation relative to control (Hepg2s spheroids; compound in isolation, most trials): greater toxicity relative to control
17 | CCCCCCCC/C=C\CCCCCCCC(N)=O [oleamide] | No significant necrosis prevention and/or treatment | 
18 | CCCCCCCC/C=C\CCCCCCCC(=O)O [oleic acid] | no significant difference from the control; also recorded: No significant necrosis prevention and/or treatment; also recorded: no significant effect on cell necrosis relative to control | 
19 | CCN(CC)CCOC(=O)c1ccc(N)cc1 [procaine] | no significant difference from the controls; also recorded: no significant effect on level of cell death necrosis | 
20 | C=C[C@H]1C[N@@]2CC[C@H]1C[C@@H]2[C@@H](O)c1ccnc2ccc(OC)cc12 [quinidine] | No significant necrosis prevention and/or treatment | 
21 | C=C[C@H]1C[N@@]2CC[C@H]1C[C@H]2[C@H](O)c1ccnc2ccc(OC)cc12 [quinine] | No significant necrosis prevention and/or treatment | 
22 | N.N.N.N.N.N.N.N.N.N.N.N.N.N.[Cl-].[Cl-].[Cl-].[Cl-].[Cl-].[Cl-].[O-2].[O-2].[Ru+3].[Ru+3].[Ru+4] [ruthenium red] | no significant difference from the controls; also recorded: no significant effect on level of cell death necrosis | 
23 | ryanodine | no significant difference from the control; also recorded: no significant difference to control | 
